We go through three molecules from patent publication US20140322252A1, “Peptides for Treating Alzheimers's Disease and Related Conditions” (priority 2013, published 2014).

Series [1] has as its system cofilin-actin rods in hippocampal neurons.
The next series concerns the target T1, CCR8 (Homo sapiens, UniProt P51685).
T1 construct: required maturation with M-CSF for 48 hrs to up-regulate expression of CCR8; endogenous in cells; host or cells: human monocytes isolated by Ficoll-Percoll gradient, matured with M-CSF for 48 hours (M2-type macrophages)
The series is classed as cell-based. The following applies: for inhibition of CCL1 (I-309) mediated chemotaxis / CCR8 function: M2 type monocyte derived macrophages, CCL1 1 nM.

Series [2] concerns APPSwDI/NOS2−/− transgenic mouse. The following applies: 0.4 mg/kg p.o. once-a-day, 9 months of age, RAWM.
Description: We tested yet a further all-D-amino acid modified peptide for oral bioavailability and protection to memory losses in an animal AD model.
Both Transgenic (CVN) and wild-type (WT) mice were used: WT mice were treated orally (p.o.) with vehicle; while CVN mice treated p.o. with either vehicle or treated p.o. with RAP-310, 0.4 mg/kg. At the age of 4.5 to 5 months the mice were subjected to once-a-day oral vehicle or RAP-310. After 1 month of treatment, starting at the age of 6 months, the mice were subjected to radial arm water maze testing.
Series [3] is described as follows: Pharmacokinetic study of RAP-103 in male Sprague Dawley rat, LC-MS/MS. It counts as in vivo. The method, then: A pharmacokinetic study of all-D-TTNYT (SEQ ID NO:2) (RAP-103) following intravenous and oral administration was conducted at a target dose level of 1 mg/kg in the male Sprague Dawley rat. The concentration of RAP-103 in each plasma and brain sample was measured using a suitable LC-MS/MS assay. The assay used was a research grade assay (RGA-1) which was established by assessing the accuracy, precision and the linearity of the method. Plasma concentrations generated were used to evaluate the pharmacokinetic parameters of all-D-TTNYT (SEQ ID NO:2) (RAP-103).
The dose formulation was administered intravenously to some animals as a slow bolus over ca 30 s via the tail vein and to a different group of animals orally via gastric gavage at a target dose volume of 1 mL/kg, to achieve a target dose level of 1 mg/kg. The dose volume administered was calculated according to the bodyweight of the animal on the day of dosing. The weight of administered dose was recorded. […] Results of the study show oral boavailibity of the all-D-peptide was achieved, results are in Table 1

The next series has as its target CCR2 (Homo sapiens, UniProt P41597). The following applies: published, Padi 2012; cited from earlier work.
Series [4] concerns rats with partial ligation of the sciatic nerve. The following applies: cited from earlier work.
The subject of a further series is LPS-infused rats. The following applies: 0.01 mg/kg, s.c., 14 days, cited from earlier work.
Series [5] concerns NBM lesioned aged Sprague-Dawley rats. The following applies: bilateral NBM lesions, 1 mg IP daily for 5 months; cited from earlier work.
Series [6] relates to CCL2 (MCP-1) chemotaxis of human monocytes. Description: CCL2-mediated human monocyte chemotaxis (FIG. 1). It counts as cell-based. The following applies: FIG. 1, direct comparison among all RAPs.
Excerpt: Triplicate determinations were made and results are expressed as the mean plus or minus SEM. The experiment shown is a direct comparison among all RAPs. Statistical analysis was by unpaired t-test, with significance set at the p<0.01 (*) level for difference from CCL2 only chemotaxis.

T1 sequence (P51685 whole entry): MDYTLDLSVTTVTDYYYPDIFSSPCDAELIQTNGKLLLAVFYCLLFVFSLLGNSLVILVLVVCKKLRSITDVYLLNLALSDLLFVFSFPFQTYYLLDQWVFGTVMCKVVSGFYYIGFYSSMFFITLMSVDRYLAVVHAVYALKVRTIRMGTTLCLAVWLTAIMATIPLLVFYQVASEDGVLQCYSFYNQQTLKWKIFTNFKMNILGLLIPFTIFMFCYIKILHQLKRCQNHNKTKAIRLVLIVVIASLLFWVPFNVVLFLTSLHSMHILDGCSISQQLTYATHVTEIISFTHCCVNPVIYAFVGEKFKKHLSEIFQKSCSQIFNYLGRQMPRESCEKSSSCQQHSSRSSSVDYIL
CCR2, sequence (P41597 whole entry): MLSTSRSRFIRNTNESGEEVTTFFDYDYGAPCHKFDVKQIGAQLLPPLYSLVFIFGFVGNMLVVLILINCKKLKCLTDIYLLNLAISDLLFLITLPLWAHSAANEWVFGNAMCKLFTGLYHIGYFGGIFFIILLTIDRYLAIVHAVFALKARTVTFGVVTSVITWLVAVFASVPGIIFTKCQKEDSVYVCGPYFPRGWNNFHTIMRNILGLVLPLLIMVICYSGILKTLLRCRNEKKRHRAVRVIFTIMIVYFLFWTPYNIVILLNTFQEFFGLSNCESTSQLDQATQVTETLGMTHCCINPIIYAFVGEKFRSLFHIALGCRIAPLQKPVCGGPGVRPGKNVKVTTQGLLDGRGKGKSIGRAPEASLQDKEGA
Description for CCR8: Human monocytes isolated by Ficoll-Percoll gradient were cultured in complete growth medium (RPMI1640, supplemented with 10% FBS and 4 mM L-glutamine) in presence of M-CSF for 48 hours. Resting monocytes, as freshly isolated, were not responsive to CCL1, which required maturation with M-CSF for 48 hrs to up-regulate expression of CCR8, so-called “M2” type macrophages. […] The data represent the mean of triplicate determinations of a representative experiment.

As a reminder, the EC50 is the midpoint of the concentration-response curve. In the case of `C[C@H](O)[C@@H](NC(=O)[C@@H](Cc1ccc(O)cc1)NC(=O)[C@@H](CC(N)=O)NC(=O)[C@H](NC(=O)[C@H](NC(=O)[C@H](NC(=O)[C@@H](CO)NC(=O)[C@@H](C)N)[C@H](C)O)[C@H](C)O)[C@H](C)O)C(=O)O` [RAP-310], in series [1], the concentration giving a half-maximal response (EC50) was roughly 0.1 pM and the “block of TNFα caused cofilin-actin rod stress response” value is reported as “comparably blocked”. Further, on CCR8 (FIG. 3), the “potency to block CCR8 compared with DAPTA” value is listed as “comparable potency”. In addition, the “inhibition of CCL1 (I-309) mediated chemotaxis / CCR8 function” value against CCR8 is on record as “Inhibit”. Also, in series [2], the “less errors in block 5 compared to CVN vehicle treated mice” value was 50% and the “less errors in sum scores for Day 1 compared to CVN vehicle treated mice” value is 30%.

In the case of `C[C@H](O)[C@@H](N)C(=O)N[C@@H](C(=O)N[C@H](CC(N)=O)C(=O)N[C@H](Cc1ccc(O)cc1)C(=O)N[C@@H](C(=O)O)[C@H](C)O)[C@H](C)O` [RAP-103, All-D-TTNYT], the “concentration in male rat plasma” value in [3] (intravenous, 1 mg/kg, nominal time 0.5 h, individual animals) was found to be 561 ng/mL. In series [3] (rat, 1 mg/kg), the “time of peak plasma levels” value lay within 10 to 15 min. In addition, the detection in plasma entry in series [3] (rat, 5 minutes (0.083 hrs) after dosing, continues at 1 hr) is reported as “detected”. The “activity to block MCP-1 human monocyte chemotaxis” value on CCR2 was “block”. Also, the already established hypersensitivity result in series [4] (0.2-1 mg/kg, days 8 to 12) is “reverses”. In [4] (oral 0.05-1 mg/kg for 7 days), the “development of thermal hyperalgesia” value is reported as “inhibits” and the mechanical allodynia result was “fully prevents”. Further, in series [4] (peripheral nerve injury), the “spinal microglial activation and monocyte infiltration” value is reported as “reduce”.

On to D-ala1-STTTNYT-NH2 [DAPTA], for which, in the series on LPS-infused rats (vs vehicle), the “number of activated microglia and astrocytes” value is on record as “dramatically reduced”. Also, the “number of immunoreactive cells expressing NfKb” value with LPS-infused rats is “reduced”. The “inhibition of CCL1 (I-309) mediated chemotaxis / CCR8 function” value on CCR8 is “Inhibit”. In series [5], the “lesion-induced decreases in cortical thickness” value is given as “prevented or attenuated” and the “loss of large neurons in layer V” value was “attenuated”. Besides, in series [6], the “potency to block CCL2 (MCP-1) chemotaxis” value is reported as “most potent”. In addition, the “potency to block CCL2 (MCP-1) chemotaxis” value in series [6] (listed as RAP-101) is “greater potency”.
